# In patent US6521654B2, “Substituted imidazolidine derivatives, their preparation, their use and pharmaceutical preparations including them” (Aventis Pharma Deutschland GmbH, priority 1997, dated 2003):
# Biological target: T1, interaction between VCAM-1 and VLA-4 (Homo sapiens, UniProt P05556+P13612)
# T1 construct: supplied in their natural form as surface molecules on human U937 cells; host or cells: U937 cells carry endogenous VLA-4; The partner hVCAM-1(1-3)-IgG was made in house in transfected COS cells (ATCC CRL1651) and used as culture supernatant
# Experiment: U937/VCAM-1 cell adhesion test (adhesion of U937 cells to hVCAM-1(1-3)-IgG)
# Assay type: cell-based
# Details: concentration leading to 50% inhibition of adhesion of human U937 cells (ATCC CRL 1593) to hVCAM-1(1-3)-IgG
# Excerpt: The test method used for the activity of the compounds of the formula I on the interaction between VCAM-1 and VLA-4 is the assay described below which is specific for this interaction. The cellular binding components, i.e., the VLA-4 integrins, are supplied in their natural form as surface molecules on human U937 cells (ATCC CRL 1593). which belong to the leucocytes group. The specific binding components used are genetically engineered recombinant soluble fusion proteins, consisting of the extracytoplasmatic domain of human VCAM-1 and the constant region of a human immunoglobulin of the subclass IgG1.
# Assay for the Measurement of the Adhesion of U937 Cells (ATCC CRL 1593) to hVCAM-1(1-3)-IgG
# 1. Preparation of Human VCAM-1 (1-3)-IgG and Human CD4-IgG
# A genetic construct for the expression of the extracellular domain of human VCAM-1, associated with the genetic sequence of the heavy chain of human immunoglobulin IgG1 (hinge, CH2 and CH3 regions), from Dr. Brian Seed, Massachusetts General Hospital. Boston, USA was employed (cf. Damle and Aruffo, Proc. Natl. Acad. Sci. USA 1991, 88, 6403-6407). The soluble fusion protein hVCAM-1(1-3)-IgG contained the three amino-terminal extracellular immunoglobulin-like domains of human VCAM-1 (Damle and Aruffo, Proc. Natl. Acad. Sci. USA 1991, 88, 6403-6407). CD4-IgG (Zettimeissl et al., DNA and Cell Biology 1990, 9, 347) served as a fusion protein for negative controls. The recombinant proteins were expressed as soluble proteins after DEAE/dextran-mediated DNA transfection in COS cells (ATCC CRL1651) according to standard procedures (Ausubel et al., Current Protocols in Molecular Biology, John Wiley & Sons, Inc., 1994).
# 2. Assay for the Measurement of the Adhesion of U937 Cells to hVCAM-1 (1-3)-IgG
# 2.1 96-well microtiter test plates (Nunc Maxisorb) were incubated at room temperature for 1 hour with 100 μl/well of a goat-anti-human IgG antibody solution (10 μg/ml in 50 mM tris, pH 9.5). After removal of the antibody solution, washing was carried out once with PBS.
# 2.2 150 μl/well of a blocking buffer (1% BSA in PBS) were incubated on the plates at room temperature for 0.5 hour. After removal of the blocking buffer, washing was carried out once with PBS.
# 2.3 100 μl per well of a cell culture supernatant of transfected COS cells were incubated on the plates at room temperature for 1.5 hours. The COS cells were transfected with a plasmid which codes for the three N-terminal immunoglobulin-like domains of VCAM-1, coupled to the Fc part of human IgG1 (hVCAM-1 (1-3)-IgG). The content of hVCAM-1 (1-3)-IgG was about 0.5-1 μg/ml. After removal of the culture supernatant, washing was carried out once with PBS.
# 2.4 The plates were incubated at room temperature for 20 minutes with 100 μl/well of Fc receptor blocking buffer (1 mg/ml of γ-globulin, 100 mM NaCl, 100 μM MgCl2, 100 μM MnCl2, 100 μM CaCl2, 1 mg/ml of BSA in 50 mM HEPES, pH 7.5). After removal of the Fc receptor blocking buffer, washing was carried out once with PBS.
# 2.5 20 μl of binding buffer (100 mM NaCl, 100 μM MgCl2, 100 μM MnCl2, 100 μM CaCl2, 1 mg/ml of BSA in 50 mM HEPES, pH 7.5) were initially introduced, and the substances to be tested were added in 10 μl of binding buffer and incubated for 20 minutes. The controls used were antibodies against VCAM-1 (BBT, No. BBA6) and against VLA-4 (immunotech, No. 0764).
# 2.6 U937 cells were incubated in Fc receptor blocking buffer for 20 minutes and then added by pipette in a concentration of 1×10^6/ml and in an amount of 100 μl per well ([…]).
# 2.7 The plates were slowly immersed at an angle of 45° in stop buffer (100 mM NaCl, 100 μM MgCl2, 100 μM MnCl2, 100 μM CaCl2 in 25 mM tris, pH 7.5) and shaken off. The process was repeated.
# 2.8 50 μl/well of a dye solution (16.7 μg/ml of Hoechst Dye 33258, 4% formaldehyde, 0.5% triton X-100 in PBS) were then incubated on the plates for 15 minutes. […]
# T1 sequence (P13612 34-1032): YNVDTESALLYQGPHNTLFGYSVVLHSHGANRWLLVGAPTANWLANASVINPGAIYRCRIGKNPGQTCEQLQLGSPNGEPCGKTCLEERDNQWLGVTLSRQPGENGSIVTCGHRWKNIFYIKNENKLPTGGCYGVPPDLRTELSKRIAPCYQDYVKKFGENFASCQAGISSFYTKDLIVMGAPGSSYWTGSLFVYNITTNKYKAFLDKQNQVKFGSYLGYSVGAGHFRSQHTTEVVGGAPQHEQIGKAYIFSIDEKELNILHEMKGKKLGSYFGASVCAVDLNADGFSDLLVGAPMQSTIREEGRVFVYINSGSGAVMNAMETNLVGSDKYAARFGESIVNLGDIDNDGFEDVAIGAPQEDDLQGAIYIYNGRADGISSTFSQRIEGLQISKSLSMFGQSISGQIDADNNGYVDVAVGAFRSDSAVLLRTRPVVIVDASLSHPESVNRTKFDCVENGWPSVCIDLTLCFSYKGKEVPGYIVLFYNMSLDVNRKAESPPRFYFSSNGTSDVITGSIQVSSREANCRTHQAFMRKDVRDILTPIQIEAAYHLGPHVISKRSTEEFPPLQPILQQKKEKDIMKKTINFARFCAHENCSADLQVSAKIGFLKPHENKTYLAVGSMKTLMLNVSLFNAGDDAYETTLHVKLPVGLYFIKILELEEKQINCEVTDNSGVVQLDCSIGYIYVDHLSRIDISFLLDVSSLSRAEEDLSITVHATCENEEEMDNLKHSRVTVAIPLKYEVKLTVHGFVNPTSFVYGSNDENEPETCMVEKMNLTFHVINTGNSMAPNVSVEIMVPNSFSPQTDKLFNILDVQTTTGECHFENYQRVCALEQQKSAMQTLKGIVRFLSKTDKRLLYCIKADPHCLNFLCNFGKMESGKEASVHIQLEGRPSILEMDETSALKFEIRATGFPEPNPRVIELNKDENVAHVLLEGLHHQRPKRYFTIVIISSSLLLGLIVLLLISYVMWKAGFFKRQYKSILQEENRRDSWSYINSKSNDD
# T1 sequence (P05556 21-798): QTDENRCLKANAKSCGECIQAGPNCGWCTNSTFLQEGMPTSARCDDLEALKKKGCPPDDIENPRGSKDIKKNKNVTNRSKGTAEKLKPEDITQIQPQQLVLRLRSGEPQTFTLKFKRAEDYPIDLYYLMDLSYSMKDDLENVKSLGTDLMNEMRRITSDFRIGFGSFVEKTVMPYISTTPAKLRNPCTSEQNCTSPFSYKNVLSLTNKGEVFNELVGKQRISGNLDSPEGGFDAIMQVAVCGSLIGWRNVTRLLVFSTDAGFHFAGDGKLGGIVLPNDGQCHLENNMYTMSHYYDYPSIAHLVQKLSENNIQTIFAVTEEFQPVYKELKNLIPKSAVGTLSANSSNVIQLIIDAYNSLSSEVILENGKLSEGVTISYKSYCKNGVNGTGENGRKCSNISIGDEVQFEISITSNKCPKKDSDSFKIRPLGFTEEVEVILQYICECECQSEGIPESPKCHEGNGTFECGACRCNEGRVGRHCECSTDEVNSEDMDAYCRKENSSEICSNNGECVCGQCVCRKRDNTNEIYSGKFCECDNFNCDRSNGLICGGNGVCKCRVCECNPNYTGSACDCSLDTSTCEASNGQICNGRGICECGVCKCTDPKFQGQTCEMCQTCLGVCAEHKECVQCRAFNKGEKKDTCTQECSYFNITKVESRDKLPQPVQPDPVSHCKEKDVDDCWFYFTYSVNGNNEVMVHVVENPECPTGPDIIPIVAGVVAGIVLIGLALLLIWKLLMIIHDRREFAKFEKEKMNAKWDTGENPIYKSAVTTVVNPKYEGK
row,IC50,SMILES
1,740 nM,Cc1ccc(NC(=O)Nc2ccc(CN3C(=O)N(CC(=O)N[C@@H](CC(=O)O)c4ccccc4)C(=O)C3(C)C)cc2)c(C)c1 [Example 43]
2,50 nM,Cc1ccccc1NC(=O)Nc1ccc(CN2C(=O)N(C(CC(C)C)C(=O)NC(CC(=O)O)c3ccc(F)cc3)C(=O)C2(C)c2ccccc2)cc1 (stereo not shown) [Example 192]
3,27 nM,"Cc1ccccc1NC(=O)Nc1ccc(CN2C(=O)N([C@@H](CC(C)C)C(=O)N[C@@H](CC(=O)O)C(=O)O)C(=O)C2(C)C)cc1 [Example 27, ((S)-2-(4,4Dimethyl-3-(4-(3-(2-methylphenyl)ureido)benzyl)-2,5-dioxoimidazolidin-1-yl)-2-(2-methylpropyl)acetyl)-L-aspartic Acid]"
4,122 nM,Cc1ccccc1NC(=O)Nc1ccc(CN2C(=O)N(C(CC(C)C)C(=O)NC(CC(=O)O)c3ccc(C(C)(C)C)cc3)C(=O)C2(C)c2ccccc2)cc1 (stereo not shown) [Example 191]
5,17 nM,Cc1ccccc1NC(=O)Nc1ccc(CN2C(=O)N(C(CC(C)C)C(=O)NC(CC(=O)O)c3ccccc3F)C(=O)C2(C)c2ccccc2)cc1 (stereo not shown) [Example 214]
6,20 nM,"Cc1ccccc1NC(=O)Nc1ccc(CN2C(=O)N(CC(=O)N[C@H](C)CC(=O)O)C(=O)C2(C)C)cc1 [Example 9, (R)-3-(2-(4,4-Dimethyl-3-(4-(3-(2-methylphenyl)ureido)benzyl)-2,5-dioxoimidazolidin-1-yl)acetylamino)-3-methylpropionic Acid]"
7,30 nM,"Cc1ccccc1NC(=O)Nc1ccc(CN2C(=O)N(CC(=O)NCCC(=O)O)C(=O)C2(C)C)cc1 [Example 15, 3-(2-(4,4-Dimethyl-3-(4-(3-(2-methylphenyl)ureido)benzyl)-2,5-dioxoimidazolidin-1-yl)acetylamino)propionic Acid]"
8,22 nM,Cc1ccccc1NC(=O)Nc1ccc(CN2C(=O)N(CC(=O)NC[C@H](NC(=O)OCc3ccccc3)C(=O)O)C(=O)C2(C)C)cc1 [Example 94]
9,1.5 nM,"Cc1ccccc1NC(=O)Nc1ccc(CN2C(=O)N([C@@H](CC(C)C)C(=O)N[C@@H](CC(=O)O)C(=O)N[C@H](C(=O)N3CCC[C@H]3C(=O)O)C(C)C)C(=O)C2(C)C)cc1 [Example 133, ((S)-2-(4,4-Dimethyl-3-(4-(3-(2-methylphenyl)ureido)benzyl)-2,5-dioxoimidazolidin-1-yl)-2-(2-methylpropyl)acetyl)-L-aspartyl-L-valyl-L-proline]"
10,95 nM,Cc1ccccc1NC(=O)Nc1ccc(CN2C(=O)N(C(CC(C)C)C(=O)NC(CC(=O)O)c3c(F)cccc3F)C(=O)C2(C)c2ccccc2)cc1 (stereo not shown) [Example 205]
